Measured values: patent US20240374753A1, “USE OF AN AGONIST OF FORMYL PEPTIDE RECEPTORS 1 AND 2 FOR TREATING OCULAR INFLAMMATORY DISEASES” (ALLGENESIS BIOTHERAPEUTICS INC., priority 2023, published 2024)

How the values were obtained:
[1] = tested on: patients with dry eye disease; experiment: Corneal fluorescein staining (NEI Scale), Phase 1b study; format: in vivo, human; conditions: for Corneal staining, unit improvement from baseline: p<0.05
Experimental: (§1) A multicenter, double-masked, randomized, parallel-group Phase 1b study evaluating the safety, tolerability, and dose-response of AG-80308 ophthalmic solution administered twice daily for 3 months in 84 patients with dry eye disease was conducted. […] 2-Hydroxypropyl-beta-cyclodextrin (HPβCD) was used in formulations A and B. The efficacy measures included both signs (ocular surface staining, tear film breakup time, Schirmer's test, meibomian gland assessments) and symptoms (7-item visual analog scale (VAS) assessments: burning/stinging, itching, foreign body sensation, eye discomfort, eye dryness, photophobia, pain and ocular surface disease index).
(§2) In this study, a single eye drop (approximately 30 μL) of AG-80308 was administered BID (approximately 12 hours apart) to the study eye every day until the Day 84 visit.
Corneal fluorescein staining was assessed in each eye at Visit 1 (Day −30 to Day −2), Visit 2 (Day 1), Visit 4 (Day 43), and Visit 5 (Day 84) using the NEI Scale. The NEI Scale uses a standardized grading system of 0 to 3 using whole number units for each of the […] areas on each cornea. Grade 0 was specified when no staining is present.

[2] = tested on: patients with dry eye disease; experiment: 7-item VAS symptom assessment, Phase 1b study; format: in vivo, human; conditions: overall study summary
Experimental: as §1, §2
The VAS symptom assessment was performed at Visit 1 (Day −30 to Day −2), Visit 2 (Day 1), Visit 3 (Day 15), Visit 4 (Day 43), and Visit 5 (Day 84). Subjects were asked to rate each ocular symptom, unrelated to study drug instillation, by placing a vertical mark on the horizontal line to indicate the level of discomfort. Zero millimeters (mm) corresponds to “no discomfort” and 100 mm corresponds to “maximal discomfort. The symptoms evaluated were burning/stinging, itching, foreign body sensation, eye discomfort, eye dryness, photophobia, and pain. […]

[3] = tested on: patients with dry eye disease; experiment: Safety and tolerability (TEAEs), Phase 1b study; format: in vivo, human; conditions: BID for 3 months, both formulations
[4] = tested on: patients with dry eye disease; experiment: Ocular surface disease index, Phase 1b study; format: in vivo, human; conditions: overall study summary
Experimental: as §1, §2

Preclinical studies = format: in vivo
[5] = Stabilisation/solubility of AG-80308 with HPβCD; format: physicochemical; conditions: storage or stress conditions

Compound: CC(C)C[C@H](NC(=O)Nc1ccc(Br)cc1)C(=O)NCC(=O)O [AG-80308, {[(2S)-2-{[(4-bromophenyl)carbamoyl]amino}-4-methylpentanoyl]amino}acetic acid]
- Corneal staining, unit improvement from baseline ([1]; Day 43, LS Mean±SE): −2.1±0.57
- Corneal staining, unit improvement from baseline ([1]; Day 84, LS Mean±SE): −2.7±0.57
- Corneal and conjunctival staining ([1]; overall study summary): clinically meaningful unit reductions
- 7-item visual analog scale for dry eye symptoms [2]: clinically meaningful unit reductions
- Safety [3]: proven safe
- Ocular surface disease index scores [4]: clinically meaningful unit reductions
- Efficacy in preclinical studies (Preclinical studies): rapid efficacy similar to steroids without any impairment of wound healing
- Safety and tolerability in preclinical studies (Preclinical studies): wide margin of safety and tolerability
- Effect of HPβCD on stability and solubility of AG-80308 [5]: increasing solubility of AG-80308 and its degradant, preventing precipitation
